The text below walks through data of patent US6770478B2, “Erythrocytic cells and method for preserving cells” (The Regents of the University of California, priority 2000, dated 2004).

For one data set, the system named is erythrocyte ghosts. Kind of data set: FTIR thermotropic response of erythrocyte ghosts. The data set is classed as cell-based, human. As to conditions: MβCD treated ghosts. The method, then: Cells were incubated at 37° C. for one hour in the presence of 10 mM methyl-β-cyclodextrin (MβCD) in order to remove cholesterol from the plasma membranes. Erythrocyte ghosts were prepared.
FTIR Spectroscopy and Sample Preparation. […] Intact cells were cooled to −5° C., kept at this temperature for 15 minutes, and then rewarmed to determine the phase transitions. […] Four scans were accumulated for each spectrum between 3600-900 cm^−1 at 4 cm^−1 resolution.
Inverted second derivative spectra were normalized on the lipid […] 2850 cm^−1. Band positions were determined as described previously. The wavenumber (cm^−1) of the CH2 symmetric stretching vibration was plotted as a function of temperature. […] For the protein studies, the spectral region between 1600 and 1500 cm^−1 selected.

For the next data set, the system named is erythrocyte membranes. Nature of the data set: FTIR membrane phase transitions of intact erythrocytes (CH2 symmetric stretch around 2850 cm^-1).
The subject of data set [1] is mesenchymal stem cells. Kind of data set: Growth curves of mesenchymal stem cells in presence of 90 mM trehalose. The data set is classed as cell-based, human. How it is done: Growth Curves. MSCs were plated into 12-welled plates at approximately the same seeding density used for T-185 flasks in standard Osiris protocols (5900 cells/cm^2 with fluid volume of 0.189 mL/cm^2). Three wells for each condition at each time point were trypsinized and counted. Data for cells grown in the presence of trehalose were lost for the first two time points. FIG. 13 is a graph illustrating growth curves for the mesenchymal stem cells in the presence or absence of 90 mM trehalose with the open triangle data representing cells grown in standard medium for 24 hours, after which 90 mM trehalose was added.

The test system of the next data set is human platelets. Nature of the data set: Loading of platelets with trehalose, quantified by anthrone reaction. As to conditions: 37° C., after 2 hours (rapid linear uptake). Format: cell-based. The method, then: Loading of Platelets with Trehalose. Washed platelets in a concentration of 1-2 10^9 platelets/ml were incubated at various temperatures in the presence of 1-20 mg/ml trehalose. Incubation temperatures were chosen from 4° C. to 37° C. Incubation times were varied from 0.5 to 4 hours. After incubation the platelet solutions were washed in buffer A two times (by centrifugation at 14,000 RPM for 20 s in a table centrifuge). Platelet counts were obtained on a coulter counter. Platelets were pelleted (45 S at 14,000 RPM) and sugars were extracted from the pellet using 80% methanol. The samples were heated for 30 minutes at 80° C. […] The amount of trehalose in the platelets was quantified using the anthrone reaction (Umbreit et al., Mamometric and Biochemical Techniques, 5th Edition, 1972). […] Then the samples were cooled on ice and the absorbance was measured at 620 nm on a Perkin Elmer spectrophotometer. The amount of platelet associated trehalose was determined using a standard curve of trehalose.
Quantification of Trehalose and LYCH Concentration. Uptake was calculated for each sample as micrograms of trehalose or LYCH per platelet. The internal trehalose concentration was calculated assuming a platelet radius of 1.2 μm and by assuming that 50% of the platelet volume is taken up by the cytosol (rest is membranes). […]

For data set [2], the system named is platelets. Nature of the data set: Stability and morphology of platelets during trehalose incubation (microscopy, flow cytometric analysis). Particulars: 4 hours incubation at 37° C., 25 mM external trehalose. The data set is classed as cell-based, human. The method, then:
The stability of the platelets during a 4 hours incubation period was studied using microscopy and flow cytometric analysis. […] No signs of microvesicle formation could be observed after 4 hours incubation, as can be judged by the stable relative proportion of microvesicle gated cells (less than 3%). The formation of microvesicles is usually considered as the first sign of platelet activation (Owners et al., Trans. Med. Rev., 8, 27-44, 1994). Characteristic antigens of platelet activation include: glycoprotein 53 (gp53, a lysosomal membrane marker), PECAM-1 (platelet endothelial cell adhesion molecule-1, an alpha granule constituent), and P-selection (an alpha granule membrane protein).

The test system of data set [3] is mesenchymal stem cells. Kind of data set: Lucifer yellow CH loading of mesenchymal stem cells, viability by trypan blue exclusion. Particulars: LYCH loading over 3.5 hours, 37° C. The data set is classed as cell-based, human. The source says:
Lucifer Yellow CH-Loading. […] The pellet was split between two treatments.

The subject of data set [4] is platelets. As to conditions: platelets cryopreserved with DMSO; cited from earlier work.
Setting [5] is: Table III, Example 11, five blood donors, standard error, 10 mM MβCD.

Values joined by “and” are separate entries in the source; they are usually repeats but may differ in a detail not shown here. Identical values can stand only once. “Also recorded” adds a separate entry of the source.

Take methyl-β-cyclodextrin [MβCD]: in the data set with erythrocyte ghosts, the “transition temperature, first transition” value worked out at 4 °C; the “transition temperature, fourth transition” value stood at 30 °C; the “transition temperature, second transition” value is 12 °C; the “transition temperature, third transition” value worked out at 20 °C. Moreover, the “wavenumber excursion from −5 to 45° C.” value in the data set on erythrocyte membranes (Example 10, after cholesterol removal (control 0.7)) was determined as 2.9 cm⁻¹. Besides, the “wavenumber excursion from −5 to 45° C.” value in the data set on erythrocyte membranes (Example 11, after cholesterol removal (control 0.7)) was found to be 2.9 cm⁻¹. Besides, the “Cooperativity, Low Transition” value in the data set with erythrocyte membranes (Table II, Example 10, 1 mM MβCD, 37° C., one hour) is recorded as 0.051 ± 0.004 cm^−1/° C. Further, in the data set on erythrocyte membranes (setting [5]), the “Cooperativity, High Transition” value was 0.091 cm^−1/° C. and 0.091 ± 0.020 cm^−1/° C; the “Cooperativity, Low Transition” value was found to be 0.051 ± 0.004 cm^−1/° C; the “Cooperativity, Middle Transition” value was 0.095 cm^−1/° C. and 0.095 ± 0.015 cm^−1/° C; the “Transition Temperature, High Transition” value is 35 °C and 35.4 ± 1.5 °C. Further, in the data set with erythrocyte membranes (setting [5]), the “Transition Temperature, Low Transition” value was 15 °C and 15.3 ± 0.8 °C; the “Transition Temperature, Middle Transition” value is 26 °C and 26.0 ± 0.8 °C.

As for `OC[C@H]1O[C@H](O[C@H]2O[C@H](CO)[C@@H](O)[C@H](O)[C@H]2O)[C@H](O)[C@@H](O)[C@@H]1O` [trehalose], the “effect on cell count” value with mesenchymal stem cells [1] (after the third day) is “cell count started to drop significantly”. Moreover, the “effect on growth of the cells” value in the data set with mesenchymal stem cells [1] (up to the third day) was “did not interfere with growth; also recorded: does not interfere with the growth and viability”. In addition, in the data set on human platelets, the trehalose uptake was 3.3×10^−10 mol/m^2s. The “morphological changes of platelets” value in the data set on platelets [2] is “No morphological changes”.

By viability is commonly meant a read-out of living cells in per cent, often relative to untreated cells. High values mean less harm to the cells, low ones more harm to the cells. For the molecule `NNC(=O)NN1C(=O)c2cc(S(=O)(=O)O)cc3c(N)c(S(=O)(=O)O)cc(c23)C1=O` [LYCH, lucifer yellow CH], the viability in the data set on mesenchymal stem cells [3] was approximately 70%.

Turning to `C[S+](C)[O-]` [DMSO, dimethyl sulfoxide], the “overall responsiveness of frozen thawed platelets to various agonists compared with fresh platelets” value in the data set with platelets [4] is recorded as “less than 35%”.

For the molecule `CC(C)c1c(C(=O)Nc2ccccc2)c(-c2ccccc2)c(-c2ccc(F)cc2)n1CC[C@@H](O)C[C@@H](O)CC(=O)O` [LIPITOR], the “total wavenumber excursion (from −5 to 45° C.)” value in the data set on erythrocyte membranes (erythrocytes of a blood donor who used LIPITOR, other donors 0.8) is approximately 1.5 cm⁻¹.
